The values that follow are results of earlier work, collected in paper PMC3780389 (Experimental neurology, 2012).

Data set [1] concerns APP23 transgenic mouse model of AD. The following applies: ref Qing, et al., 2008.
A further data set concerns 3x-Tg AD mice. The following applies: ref Green, et al., 2008, Hempen and Brion, 1996.
The test system of another data set is hAPP Tg AD mice. The settings on record: chronic administration, ref Ricobaraza, et al., 2011.

With `CCCC(CCC)C(=O)O` [Valproic acid], the Aβ plaque number entry in data set [1] is listed as “significantly reduce Aβ plaque number”.

In the case of `NC(=O)c1cccnc1` [nicotinamide], in the data set on 3x-Tg AD mice, the Thr231-phosphotau entry is on record as “selectively decreases” and the “level of acetylated α-tubulin” value is “increases”.

For “sodium 4-phenylbutyrate [sodium 4-phenylbutyrate (4-PBA)]”, the Aβ levels entry in the data set on hAPP Tg AD mice is listed as “decreased Aβ levels”.
